Measurements: ChEMBL document CHEMBL1201862, “PubChem BioAssay data set” (2004)
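Each compound was tested at five concentrations against cells in 96-well plates for 48 hours. The concentration for 50% growth inhibition is given as GI50.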 The source made the active and inactive calls. Rule as the data show it: active = GI50 up to about 1.1 µM and inactive = higher.

Legend:
Assay in all cases: growth of human tumour cells (NCI), 48 h
U-251 = tested on: U-251
RPMI-8226 = tested on: RPMI-8226
K562 = tested on: K562
NCI-H226 = tested on: NCI-H226
NCI-H23 = tested on: NCI-H23
SF-268 = tested on: SF-268
OVCAR-4 = tested on: OVCAR-4
SNB-19 = tested on: SNB-19
EKVX = tested on: EKVX
SN12C = tested on: SN12C
SR = tested on: SR
MDA-N = tested on: MDA-N
HCT-15 = tested on: HCT-15
BT-549 = tested on: BT-549
OVCAR-5 = tested on: OVCAR-5
IGROV-1 = tested on: IGROV-1
SW-620 = tested on: SW-620
SK-OV-3 = tested on: SK-OV-3
A549 = tested on: A549
UACC-62 = tested on: UACC-62
HCC 2998 = tested on: HCC 2998
M14 = tested on: M14
DU-145 = tested on: DU-145
SK-MEL-2 = tested on: SK-MEL-2
HOP-62 = tested on: HOP-62
OVCAR-8 = tested on: OVCAR-8
NCI-H522 = tested on: NCI-H522
PC-3 = tested on: PC-3
SF-539 = tested on: SF-539
HCT-116 = tested on: HCT-116
UO-31 = tested on: UO-31
HOP-92 = tested on: HOP-92
MOLT-4 = tested on: MOLT-4
MCF7 = tested on: MCF7
RXF 393 = tested on: RXF 393
A498 = tested on: A498
KM12 = tested on: KM12
CCRF-CEM = tested on: CCRF-CEM
SK-MEL-28 = tested on: SK-MEL-28
LOX IMVI = tested on: LOX IMVI
TK-10 = tested on: TK-10
UACC-257 = tested on: UACC-257
MDA-MB-231 = tested on: MDA-MB-231
786-0 = tested on: 786-0
NCI-H460 = tested on: NCI-H460
OVCAR-3 = tested on: OVCAR-3
SK-MEL-5 = tested on: SK-MEL-5
COLO 205 = tested on: COLO 205
SF-295 = tested on: SF-295
T47D = tested on: T47D
ACHN = tested on: ACHN
Hs-578T = tested on: Hs-578T
HT-29 = tested on: HT-29
NCI/ADR-RES = tested on: NCI/ADR-RES
MDA-MB-435 = tested on: MDA-MB-435
CAKI-1 = tested on: CAKI-1
HL-60 = tested on: HL-60
Malme-3M = tested on: Malme-3M
SNB-75 = tested on: SNB-75

For `O=C1CC(c2cccc(Cl)c2)Nc2ccc(N3CCCC3)cc21` (centres undefined), the GI50 (U-251) was 0.0314 µM (active), the GI50 (RPMI-8226) was 0.0802 µM (active) and the GI50 (K562) was 0.0863 µM (active). For the same compound, the GI50 (NCI-H226) was 0.0721 µM (active), the GI50 (NCI-H23) was 0.278 µM (active) and the GI50 (SF-268) was 0.115 µM (active). The GI50 (OVCAR-4) was 6.89 µM (inactive), the GI50 (SNB-19) was 0.0332 µM (active) and the GI50 (EKVX) was 0.0658 µM (active). The GI50 (SN12C) was 0.0552 µM (active), the GI50 (SR) was 0.0304 µM (active) and the GI50 (MDA-N) was 0.00359 µM (active). For the same compound, the GI50 (HCT-15) was 0.203 µM, the GI50 (BT-549) was 1.29 µM (inactive) and the GI50 (OVCAR-5) was 0.526 µM (active). The GI50 (IGROV-1) was 0.13 µM (active), the GI50 (SW-620) was 0.0266 µM (active) and the GI50 (SK-OV-3) was 0.193 µM (active). The GI50 (A549) was 0.0494 µM (active), the GI50 (UACC-62) was 0.0537 µM (active) and the GI50 (HCC 2998) was 0.335 µM (active). The GI50 (M14) was 0.028 µM (active), the GI50 (DU-145) was 0.0391 µM (active) and the GI50 (SK-MEL-2) was 0.0546 µM (active). For the same compound, the GI50 (HOP-62) was 0.419 µM (active), the GI50 (OVCAR-8) was 0.0522 µM (active) and the GI50 (NCI-H522) was 0.0191 µM (active). For the same compound, the GI50 (PC-3) was 0.0343 µM (active), the GI50 (SF-539) was 0.0263 µM (active) and the GI50 (HCT-116) was 0.0385 µM (active). The GI50 (UO-31) was 0.0603 µM (active), the GI50 (HOP-92) was 0.373 µM (active) and the GI50 (MOLT-4) was 0.0802 µM (active). For the same compound, the GI50 (MCF7) was 0.555 µM (active), the GI50 (RXF 393) was 0.0224 µM (active) and the GI50 (A498) was 0.01 µM (active). For the same compound, the GI50 (KM12) was 0.361 µM (active), the GI50 (CCRF-CEM) was 0.0302 µM (active) and the GI50 (SK-MEL-28) was 0.189 µM (active). The GI50 (LOX IMVI) was 0.0518 µM (active), the GI50 (TK-10) was 0.942 µM (active) and the GI50 (UACC-257) was 0.0687 µM (active). The GI50 (MDA-MB-231) was 0.366 µM (active), the GI50 (786-0) was 0.0577 µM (active) and the GI50 (NCI-H460) was 0.0506 µM (active). For the same compound, the GI50 (OVCAR-3) was 0.158 µM (active), the GI50 (SK-MEL-5) was 0.0305 µM (active) and the GI50 (COLO 205) was 0.194 µM (active). For the same compound, the GI50 (SF-295) was 0.0439 µM (active), the GI50 (T47D) was > 100 µM (inactive) and the GI50 (ACHN) was 0.0524 µM (active). For the same compound, the GI50 (Hs-578T) was 0.01 µM (active), the GI50 (HT-29) was 0.0791 µM (active) and the GI50 (NCI/ADR-RES) was 0.0274 µM (active). The GI50 (MDA-MB-435) was 0.00484 µM (active) and the GI50 (CAKI-1) was 0.0608 µM (active).
With `NC(=S)N/N=C(/C(=O)Nc1nc2ccc([N+](=O)[O-])cc2s1)C1C(=O)NC(=S)NC1=O` the GI50 (U-251) was > 100 µM (inactive), the GI50 (RPMI-8226) was > 100 µM (inactive) and the GI50 (K562) was > 100 µM (inactive). The GI50 (NCI-H226) was 33.2 µM (inactive), the GI50 (NCI-H23) was > 100 µM (inactive) and the GI50 (SF-268) was 88.9 µM (inactive). For the same compound, the GI50 (OVCAR-4) was 23.7 µM (inactive), the GI50 (SNB-19) was 76.6 µM (inactive) and the GI50 (SN12C) was > 100 µM (inactive). The GI50 (SR) was > 100 µM (inactive), the GI50 (MDA-N) was > 100 µM (inactive) and the GI50 (HCT-15) was 42.7 µM. The GI50 (BT-549) was 70.1 µM (inactive), the GI50 (OVCAR-5) was 55.3 µM (inactive) and the GI50 (SW-620) was > 100 µM (inactive). The GI50 (SK-OV-3) was > 100 µM (inactive), the GI50 (A549) was > 100 µM (inactive) and the GI50 (UACC-62) was > 100 µM (inactive). The GI50 (HCC 2998) was 56 µM (inactive), the GI50 (M14) was > 100 µM (inactive) and the GI50 (DU-145) was > 100 µM (inactive). For the same compound, the GI50 (SK-MEL-2) was > 100 µM (inactive), the GI50 (OVCAR-8) was > 100 µM (inactive) and the GI50 (HL-60) was > 100 µM (inactive). The GI50 (PC-3) was 63.1 µM (inactive), the GI50 (SF-539) was 49 µM (inactive) and the GI50 (HCT-116) was > 100 µM (inactive). For the same compound, the GI50 (UO-31) was 63.8 µM (inactive), the GI50 (HOP-92) was 77.6 µM (inactive) and the GI50 (MOLT-4) was > 100 µM (inactive). For the same compound, the GI50 (MCF7) was > 100 µM (inactive), the GI50 (RXF 393) was 48.6 µM (inactive) and the GI50 (A498) was 72.3 µM (inactive). For the same compound, the GI50 (KM12) was > 100 µM (inactive), the GI50 (CCRF-CEM) was > 100 µM (inactive) and the GI50 (SK-MEL-28) was > 100 µM (inactive). For the same compound, the GI50 (LOX IMVI) was > 100 µM (inactive), the GI50 (UACC-257) was > 100 µM (inactive) and the GI50 (MDA-MB-231) was > 100 µM (inactive). For the same compound, the GI50 (786-0) was > 100 µM (inactive), the GI50 (NCI-H460) was 56.1 µM (inactive) and the GI50 (OVCAR-3) was > 100 µM (inactive). The GI50 (COLO 205) was > 100 µM (inactive), the GI50 (SF-295) was 42.2 µM (inactive) and the GI50 (T47D) was 47.4 µM (inactive). The GI50 (ACHN) was 59.4 µM (inactive), the GI50 (Hs-578T) was 27.7 µM (inactive) and the GI50 (HT-29) was > 100 µM (inactive). For the same compound, the GI50 (NCI/ADR-RES) was > 100 µM (inactive), the GI50 (MDA-MB-435) was > 100 µM (inactive) and the GI50 (CAKI-1) was 45.8 µM (inactive).
`CCOP(=O)(OCC)C(F)(F)Cc1cnc(C)c2c1COC(C)(C)O2` was tested, and the GI50 (U-251) was > 10 µM (inactive), the GI50 (RPMI-8226) was > 10 µM (inactive) and the GI50 (K562) was > 10 µM (inactive). For the same compound, the GI50 (NCI-H226) was > 10 µM (inactive), the GI50 (NCI-H23) was > 10 µM (inactive) and the GI50 (SF-268) was > 10 µM (inactive). For the same compound, the GI50 (OVCAR-4) was > 10 µM (inactive), the GI50 (SNB-19) was > 10 µM (inactive) and the GI50 (EKVX) was > 10 µM (inactive). The GI50 (SN12C) was > 10 µM (inactive), the GI50 (SR) was > 10 µM (inactive) and the GI50 (MDA-N) was > 10 µM (inactive). For the same compound, the GI50 (HCT-15) was greater than 10 µM, the GI50 (BT-549) was > 10 µM (inactive) and the GI50 (OVCAR-5) was > 10 µM (inactive). The GI50 (IGROV-1) was > 10 µM (inactive), the GI50 (SW-620) was > 10 µM (inactive) and the GI50 (SK-OV-3) was > 10 µM (inactive). For the same compound, the GI50 (A549) was > 10 µM (inactive), the GI50 (UACC-62) was > 10 µM (inactive) and the GI50 (HCC 2998) was > 10 µM (inactive). For the same compound, the GI50 (M14) was > 10 µM (inactive), the GI50 (DU-145) was > 10 µM (inactive) and the GI50 (SK-MEL-2) was > 10 µM (inactive). For the same compound, the GI50 (HOP-62) was > 10 µM (inactive), the GI50 (OVCAR-8) was > 10 µM (inactive) and the GI50 (HL-60) was > 10 µM (inactive). The GI50 (PC-3) was > 10 µM (inactive), the GI50 (SF-539) was > 10 µM (inactive) and the GI50 (HCT-116) was > 10 µM (inactive). The GI50 (UO-31) was > 10 µM (inactive), the GI50 (HOP-92) was > 10 µM (inactive) and the GI50 (MOLT-4) was > 10 µM (inactive). The GI50 (MCF7) was > 10 µM (inactive), the GI50 (RXF 393) was > 10 µM (inactive) and the GI50 (A498) was > 10 µM (inactive). For the same compound, the GI50 (KM12) was > 10 µM (inactive), the GI50 (Malme-3M) was > 10 µM (inactive) and the GI50 (CCRF-CEM) was > 10 µM (inactive). For the same compound, the GI50 (SK-MEL-28) was > 10 µM (inactive), the GI50 (SNB-75) was > 10 µM (inactive) and the GI50 (TK-10) was > 10 µM (inactive). The GI50 (UACC-257) was > 10 µM (inactive), the GI50 (MDA-MB-231) was > 10 µM (inactive) and the GI50 (786-0) was > 10 µM (inactive). The GI50 (NCI-H460) was > 10 µM (inactive), the GI50 (OVCAR-3) was > 10 µM (inactive) and the GI50 (SK-MEL-5) was > 10 µM (inactive). For the same compound, the GI50 (COLO 205) was > 10 µM (inactive), the GI50 (SF-295) was > 10 µM (inactive) and the GI50 (T47D) was > 10 µM (inactive). For the same compound, the GI50 (ACHN) was > 10 µM (inactive), the GI50 (Hs-578T) was > 10 µM (inactive) and the GI50 (HT-29) was > 10 µM (inactive). The GI50 (NCI/ADR-RES) was > 10 µM (inactive), the GI50 (MDA-MB-435) was > 10 µM (inactive) and the GI50 (CAKI-1) was > 10 µM (inactive).
